Laboratory results as given in US20060057673A1, “Epitope analogs” (priority 2004, published 2006).
Where a SMILES comes first, the peptide text is derived from it. [ ]: non-standard residue; d: D form. Cha = N[C@@H](CC1CCCCC1)C(=O)O

How the values were obtained:
HLA-A*0201 [1] = biological target: T1, HLA-A*0201 (Homo sapiens, UniProt P04439, D140Y/D185E/D98H/E176V/E277Q/G131W/G231S/I119V/I121R/I166T/I218V/L300P/L318F/N151K/N90K/P208A/P217A/Q86G/Q94H/R138H/R169H/T345S); test: Peptide binding using T2 cells; set-up: endogenous in cells; host or cells: T2 cells; conditions: T2 cells pulsed overnight at 37° C.; peptide concentration giving 50% of saturation signal; N/B printed, not defined
[2] = test system: target cells loaded with native PRAME425-433 peptide; test: In vivo cytotoxicity against native PRAME peptide coated splenocytes (CFSE); set-up: species or system HHD transgenic mice; conditions: plasmid prime, peptide boost
HLA-A*0201 [3] = biological target: T1, HLA-A*0201; test: iTopia binding assay (% binding); conditions: % binding compared to positive control melan-A26-35 A27L
Excerpt: Avidin-coated microtiter plates containing class I monomer loaded with a so-called placeholder peptide were used to evaluate peptide binding, affinity and off-rate. The monomer-coated plates were supplied as part of the iTopia Epitope Discovery System Kit (Beckman Ciulter, Inc., San Diego, Calif., USA). Assay buffers, anti-MHC-FITC mAb and beta2-microglobulin and control peptides were also supplied with the kits.
This assay measures the ability of individual peptides to bind HLA molecules under standardized optimal binding conditions. Monomer-coated plates were first stripped, releasing the placeholder peptide and leaving only the MHC heavy chain bound to the plate. Test peptides were then introduced under optimal folding conditions, along with the anti-MRC-FITC mAb. Plates were incubated for 18hrs at 21° C. The anti-MHC-FITC mAb binds preferentially to a refolded MHC complex. Therefore, the fluorescence intensity resulted from each peptide was related to the peptide's ability to form complex with MHC molecule. Each peptide's binding was evaluated relative to the positive control peptide provided in the kit, and the results were expressed ‘% binding’.

Row | Compound | Half-maximal Binding (mM) (HLA-A*0201 [1]) | In vivo cytotoxicity against native PRAME epitope [2] | % binding relative to native PRAME425-433 (HLA-A*0201 [3])
1 | CC[C@H](C)[C@H](NC(=O)[C@H](CCCCN)NC(=O)[C@H](CCC(=O)O)NC(=O)[C@H](CO)NC(=O)[C@H](Cc1cccc2ccccc12)NC(=O)[C@@H](N)CCCCN)C(=O)N[C@@H](Cc1ccccc1)C(=O)N[C@@H](Cc1ccc(O)cc1)C(=O)N[C@H](C(=O)O)C(C)C [SSX2 41-49 (A42(Nal-1)), KNal-1SEKIFYV] | N/B |  | 
2 | Phe P1 analog: PRAME425-433 (SLLQHLIGL) analog, Phe for the Ser at the P1 position (FLLQHLIGL) |  | capable of expanding the immunity against the native epitope | exceeded that range on the high side
3 | CC[C@H](C)[C@H](NC(=O)[C@H](CCCCN)NC(=O)[C@H](CCC(=O)O)NC(=O)[C@H](CO)NC(=O)[C@H](C)NC(=O)[C@@H](N)CC1CCCCC1)C(=O)N[C@@H](Cc1ccccc1)C(=O)N[C@@H](Cc1ccc(O)cc1)C(=O)N[C@H](C(=O)O)C(C)C [SSX2 41-49 (K41(Cha))] (H-[Cha]ASEKIFYV-OH) | N/B |  | 
